Laboratory results reported in US20100144626A1, “Treatment of Multi-Drug Resistant Bacterial Infections” (priority 2006, published 2010).
≈ marks a conversion by molar mass, not a printed value. Where two headings read alike, the source gives them in different places.

Assays:
[1] = in vivo; cited from earlier work
[2] = test system: Gram-negative organisms; experiment: Growth inhibition, summary of MIC testing; format: cell-based; details: summary in words
Protocol: (§1) In example experiments miconazole nitrate, was dissolved in methanol and econazole nitrate and clotrimazole were dissolved in DMSO and methanol respectively. Other solvents that may be used include caster oil, pyridine, DMSO and 0.9% saline. For IV administration agents may be solubilised in polyethoxylated caster oil, or cyclodextrins such as sulfobutylether7-βcyclodextrin or hydroxypropyl-β-cyclodextrin and lactic acid. Minimum inhibitory concentrations (MICs) of a range of clinical and control bacterial organisms were measured according to BSAC (British Society for Antimicrobial Chemotherapy) guidelines, described briefly as follows;
(§2) Stock solutions were prepared at concentrations of 1000 mg/L and 100 mg/L. The appropriate amounts of each stock solution were added to separate Petri dishes give the following final concentrations (after the addition of 20 mL molten agar): 128, 64, 32, 16, 8, 4, 2, 1, 0.5, 0.25, 0.12, 0.06, 0.03, 0.015 mg/L.
(§3) The test organisms were grown overnight in 5 mL IST broth. Using a dilution in 0.9% saline of 1:500 for Gram-negative organisms and 1:100 for Gram-positive organisms, the appropriate agar plates were inoculated using a multipoint inoculator.
(§4) Plates were incubated at 37° C. in air for 18-20 hours.
(§5) The MIC is the minimum amount of an antibiotic at which there is no visible growth of bacteria. Tiny single colonies or faint hazes were not counted as growth.

[3] = test system: strains of Staphylococci and Enterococci with reduced susceptibility to vancomycin; experiment: Growth inhibition, summary of MIC testing; format: cell-based; details: summary in words
Protocol: as §1, §2, §3, §4, §5

[4] = test system: Pseudomonas aeruginosa NCTC 10662; experiment: MIC, agar dilution (BSAC guidelines); format: cell-based
Protocol: as §1
(§6) Preparation of Agar Plates and Broths
(§7) Stock solutions of each agent were prepared using the formula:
(§8) Where P=μg of active compound per mg (μg/mg) • V=volume required (mL) • C=final concentration of solution (mg/L) • W=weight of agent (mg) to be dissolved in volume V (mL)
as §2
(§9) Volumes (20 mL) of cooled molten IST agar (oxoid) was added to each Petri dish and mixed by swirling.
(§10) After drying, the plates were stored at 4° C. and protected from light. Plates were used on the day of preparation.
as §3, §4, §5

[5] = test system: Enterococcus faecium (VRE) NCTC 7171; experiment: MIC, agar dilution (BSAC guidelines); format: cell-based
Protocol: as §1, §6, §7, §8, §2, §9, §10, §3, §4, §5

[6] = test system: VISA, strain USA/VISA 5827; experiment: MIC, agar dilution (BSAC guidelines); format: cell-based; details: Staphylococcus aureus
Protocol: as §1, §6, §7, §8, §2, §9, §10, §3, §4, §5

[7] = test system: VISA, strain USA/VISA 5836; experiment: MIC, agar dilution (BSAC guidelines); format: cell-based; details: Staphylococcus aureus
Protocol: as §1, §6, §7, §8, §2, §9, §10, §3, §4, §5

[8] = test system: Acinetobacter Baumannii ATCC 19606; experiment: MIC, agar dilution (BSAC guidelines); format: cell-based
Protocol: as §1, §6, §7, §8, §2, §9, §10, §3, §4, §5

[9] = test system: Enterococcus faecium (VRE) VanR B145344C LFE; experiment: MIC, agar dilution (BSAC guidelines); format: cell-based; details: E. faecium (VRE) VanR B145344C LFE
Protocol: as §1, §6, §7, §8, §2, §9, §10, §3, §4, §5

[10] = test system: Enterococcus faecalis (VRE) E8 VanA; experiment: MIC, agar dilution (BSAC guidelines); format: cell-based; details: E. faecalis (VRE) E8 VanA
Protocol: as §1, §6, §7, §8, §2, §9, §10, §3, §4, §5

[11] = test system: VISA, strain VISA 3900 UK; experiment: MIC, agar dilution (BSAC guidelines); format: cell-based; details: Staphylococcus aureus
Protocol: as §1, §6, §7, §8, §2, §9, §10, §3, §4, §5

[12] = test system: Enterococcus gallinarum (VRE) E1 NCTC 12359 VanC1; experiment: MIC, agar dilution (BSAC guidelines); format: cell-based
Protocol: as §1, §6, §7, §8, §2, §9, §10, §3, §4, §5

[13] = test system: Escherichia coli NCTC 10418; experiment: MIC, agar dilution (BSAC guidelines); format: cell-based
Protocol: as §1, §6, §7, §8, §2, §9, §10, §3, §4, §5

[14] = test system: Klebsiella pneumoniae ESBL 700603; experiment: MIC, agar dilution (BSAC guidelines); format: cell-based
Protocol: as §1, §6, §7, §8, §2, §9, §10, §3, §4, §5

[15] = test system: Staphylococcus epidermidis ATCC 1228; experiment: MIC, agar dilution (BSAC guidelines); format: cell-based
Protocol: as §1, §6, §7, §8, §2, §9, §10, §3, §4, §5

[16] = test system: Enterococcus faecium (VRE) E19 UAA/522 VanB; experiment: MIC, agar dilution (BSAC guidelines); format: cell-based; details: E. faecium (VRE) E19 UAA/522 VanB
Protocol: as §1, §6, §7, §8, §2, §9, §10, §3, §4, §5

[17] = test system: Enterococcus faecium (VRE) E15 VanA ATCC 4147; experiment: MIC, agar dilution (BSAC guidelines); format: cell-based
Protocol: as §1, §6, §7, §8, §2, §9, §10, §3, §4, §5

[18] = replicate 1, read-out: Minimum inhibitory concentration (MIC)
[19] = replicate 2, read-out: Minimum inhibitory concentration (MIC)
[20] = replicate 3, read-out: Minimum inhibitory concentration (MIC)

For `Clc1ccc(COC(Cn2ccnc2)c2ccc(Cl)cc2Cl)c(Cl)c1` (stereo not drawn) [Miconazole, 1-[2-(2,4-dichlorophenyl)-2-[(2,4-dichlorophenyl)methoxy]ethyl]-1H-imidazole], the “biological half life, first phase of triphasic elimination” value [1] is listed as 0.4 hours, the “biological half life, second phase of triphasic elimination” value [1] is listed as 2.1 hours and the “biological half life, third phase of triphasic elimination” value [1] is listed as 24.1 hours. For the same compound, the “activity against Gram-negative organisms” value [2] was “no significant activity”, the “activity against strains of Staphylococci and Enterococci with reduced susceptibility to vancomycin” value [3] was “good activity” and the “activity against strains of Staphylococci and Enterococci with reduced susceptibility to vancomycin” value ([3]; listed as miconazole) was “capable of inhibiting the growth”. For the same compound, the MIC ([4]; NCTC10662, P. aeruginosa NCTC 10662, replicate 1, read-out: Minimum inhibitory concentration (MIC)) was over 10 µg/mL, the MIC ([4]; NCTC10662, P. aeruginosa NCTC 10662, replicate 2, read-out: Minimum inhibitory concentration (MIC)) was over 6 µg/mL and the MIC ([4]; NCTC10662, P. aeruginosa NCTC 10662, replicate 3, read-out: Minimum inhibitory concentration (MIC)) was over 6 µg/mL. The MIC ([5]; E. faecium (VRE) NCTC 7171, replicate 1, read-out: Minimum inhibitory concentration (MIC)) was 3.5 µg/mL (≈ 8.41 µM), the MIC ([5]; E. faecium (VRE) NCTC 7171, replicate 2, read-out: Minimum inhibitory concentration (MIC)) was 6 µg/mL (≈ 14.4 µM) and the MIC ([5]; E. faecium (VRE) NCTC 7171, replicate 3, read-out: Minimum inhibitory concentration (MIC)) was 5.5 µg/mL (≈ 13.2 µM). It also gave an MIC [6, 18] of 1 µg/mL (≈ 2.4 µM), an MIC [6, 19] of 2 µg/mL (≈ 4.81 µM) and an MIC [6, 20] of 1 µg/mL (≈ 2.4 µM). The MIC [7, 18] was 1 µg/mL (≈ 2.4 µM), the MIC [7, 19] was 2.5 µg/mL (≈ 6.01 µM) and the MIC [7, 20] was 2.5 µg/mL (≈ 6.01 µM). The MIC ([8]; ATCC19606, Acinetobacter Baumannii ATCC 19606, replicate 1, read-out: Minimum inhibitory concentration (MIC)) was over 10 µg/mL, the MIC ([8]; ATCC19606, Acinetobacter Baumannii ATCC 19606, replicate 2, read-out: Minimum inhibitory concentration (MIC)) was over 6 µg/mL and the MIC ([8]; ATCC19606, Acinetobacter Baumannii ATCC 19606, replicate 3, read-out: Minimum inhibitory concentration (MIC)) was over 6 µg/mL. It also gave an MIC [9, 18] of 2.5 µg/mL (≈ 6.01 µM), an MIC [9, 19] of 3 µg/mL (≈ 7.21 µM) and an MIC [9, 20] of 2.5 µg/mL (≈ 6.01 µM). The MIC [10, 18] was 5 µg/mL (≈ 12 µM), the MIC [10, 19] was over 6 µg/mL and the MIC [10, 20] was over 6 µg/mL. The MIC [11, 18] was 1 µg/mL (≈ 2.4 µM), the MIC [11, 19] was 1.5 µg/mL (≈ 3.6 µM) and the MIC [11, 20] was 2 µg/mL (≈ 4.81 µM). It also gave an MIC ([12]; E. gallinarum (VRE) E1 NCTC 12359 VanC1, replicate 1, read-out: Minimum inhibitory concentration (MIC)) of 2 µg/mL (≈ 4.81 µM), an MIC ([12]; E. gallinarum (VRE) E1 NCTC 12359 VanC1, replicate 2, read-out: Minimum inhibitory concentration (MIC)) of 3 µg/mL (≈ 7.21 µM) and an MIC ([12]; E. gallinarum (VRE) E1 NCTC 12359 VanC1, replicate 3, read-out: Minimum inhibitory concentration (MIC)) of 3.5 µg/mL (≈ 8.41 µM). For the same compound, the MIC ([13]; NCTC10418, E. coli NCTC 10418, replicate 1, read-out: Minimum inhibitory concentration (MIC)) was over 10 µg/mL, the MIC ([13]; NCTC10418, E. coli NCTC 10418, replicate 2, read-out: Minimum inhibitory concentration (MIC)) was over 6 µg/mL and the MIC ([13]; NCTC10418, E. coli NCTC 10418, replicate 3, read-out: Minimum inhibitory concentration (MIC)) was over 6 µg/mL. It also gave an MIC ([14]; ESBL700603, K. pneumoniae ESBL 700603, replicate 1, read-out: Minimum inhibitory concentration (MIC)) of over 10 µg/mL, an MIC ([14]; ESBL700603, K. pneumoniae ESBL 700603, replicate 2, read-out: Minimum inhibitory concentration (MIC)) of over 6 µg/mL and an MIC ([14]; ESBL700603, K. pneumoniae ESBL 700603, replicate 3, read-out: Minimum inhibitory concentration (MIC)) of over 6 µg/mL. For the same compound, the MIC ([15]; ATCC1228, S. epidermidis ATCC 1228, replicate 1, read-out: Minimum inhibitory concentration (MIC)) was 2.5 µg/mL (≈ 6.01 µM), the MIC ([15]; ATCC1228, S. epidermidis ATCC 1228, replicate 2, read-out: Minimum inhibitory concentration (MIC)) was 2 µg/mL (≈ 4.81 µM) and the MIC ([15]; ATCC1228, S. epidermidis ATCC 1228, replicate 3, read-out: Minimum inhibitory concentration (MIC)) was 2 µg/mL (≈ 4.81 µM). It also gave an MIC [16, 18] of 1 µg/mL (≈ 2.4 µM), an MIC [16, 19] of 2.5 µg/mL (≈ 6.01 µM) and an MIC [16, 20] of 2.5 µg/mL (≈ 6.01 µM). The MIC ([17]; E. faecium (VRE) E15 VanA ATCC 4147, replicate 1, read-out: Minimum inhibitory concentration (MIC)) was 1.5 µg/mL (≈ 3.6 µM), the MIC ([17]; E. faecium (VRE) E15 VanA ATCC 4147, replicate 2, read-out: Minimum inhibitory concentration (MIC)) was 3 µg/mL (≈ 7.21 µM) and the MIC ([17]; E. faecium (VRE) E15 VanA ATCC 4147, replicate 3, read-out: Minimum inhibitory concentration (MIC)) was 3 µg/mL (≈ 7.21 µM).
